Measurements as given in ChEMBL document CHEMBL2440004, “The influence of saponins on cell membrane cholesterol” (Bioorg Med Chem, 2013).
Calls of active or inactive are those of the source. The rule behind the calls is not given here.

Assays:
ECV-304 [1] = test: Effect on [3H]cholesterol liberation from cell membrane of human ECV304 cells after 1 hr by liquid scintillation counting; type: functional, cell membranes
ECV-304 [2] = test: Reduction in [3H]cholesterol uptake in human ECV304 cells after 1 hr by liquid scintillation counting; type: functional, cell-based
ECV-304 [3] = test: Cytotoxicity against human ECV304 cells after 72 hrs by MTT assay; type: functional, cell-based; conditions: ECV-304, 72 h
ECV-304 [4] = test: Reduction in [3H]cholesterol content in endosomal/lysosomal membrane of human ECV304 cells at 5 uM after 1 hr by liquid scintillation counting; type: functional, cell membranes
ECV-304 [5] = test: Reduction in [3H]cholesterol content in cytoplasm membrane of human ECV304 cells at 5 uM after 1 hr by liquid scintillation counting; type: functional, cell membranes
ECV-304 [6] = test: Membrane toxicity against human ECV304 cells after 2 hrs by LDH release assay; type: functional, cell-based; conditions: ECV-304, 2 h

Compound	Activity (ECV-304 [1])	Activity (ECV-304 [2])	IC50 (ECV-304 [3]) [µM]	Activity (ECV-304 [4])	Activity (ECV-304 [5])	IC50 (ECV-304 [6]) [µM]
C[C@H]1O[C@@H](O[C@H]2[C@H](O)[C@@H](O[C@H]3CC[C@]4(C)[C@H]5CC=C6[C@@H]7CC(C)(C)CC[C@]7(C(=O)O[C@@H]7O[C@H](CO[C@@H]8OC[C@](O)(CO)[C@H]8O)[C@@H](O)[C@H](O)[C@H]7O)CC[C@@]6(C)[C@]5(C)CC[C@H]4C3(C)C)O[C@@H](C(=O)O)[C@@H]2O[C@@H]2OC[C@@H](O)[C@H](O)[C@H]2O)[C@@H](O)[C@@H](O)[C@@H]1O	inactive	inactive	> 100			
C[C@@H]1O[C@@H](O[C@H]2[C@@H](O)[C@H](O[C@H]3O[C@@H](C)[C@H](O[C@H]4OC[C@@H](O)[C@H](O[C@H]5OC[C@@H](O)[C@H](O)[C@H]5O)[C@H]4O)[C@@H](O)[C@H]3O)[C@H](OC(=O)[C@]34CCC(C)(C)C[C@H]3C3=CC[C@@H]5[C@@]6(C)CC[C@H](O[C@@H]7O[C@H](C(=O)O)[C@@H](O)[C@H](O[C@@H]8OC[C@H](O)[C@@H](O)[C@@H]8O)[C@H]7O[C@@H]7O[C@H](CO)[C@H](O)[C@H](O)[C@H]7O)[C@@](C)(C=O)[C@@H]6CC[C@@]5(C)[C@]3(C)CC4)O[C@H]2C)[C@@H](O)[C@H](O)[C@H]1O	Active	Dose-dependent effect	9	inactive	Active	21
C[C@H]1O[C@H](O[C@H]2[C@H](O[C@H]3CC[C@]4(C)[C@H]5CC=C6[C@@H]7CC(C)(C)CC[C@]7(CO)[C@H](O)C[C@@]6(C)[C@]5(C)CC[C@H]4C3(C)C)O[C@H](C(=O)O)[C@H](O[C@H]3O[C@@H](CO[C@@H]4O[C@H](CO)[C@@H](O)[C@H](O)[C@H]4O)[C@@H](O)[C@@H](O)[C@@H]3O)[C@@H]2O)[C@@H](O)[C@@H](O)[C@@H]1O	Active	Dose-dependent effect	13			58
COC(=O)[C@@]1(C)CC[C@]2(C(=O)O[C@@H]3O[C@H](CO)[C@@H](O)[C@H](O)[C@H]3O)CC[C@]3(C)C(=CC[C@@H]4[C@@]5(C)CC[C@H](O[C@@H]6O[C@H](C(=O)O)[C@@H](O)[C@H](O)[C@H]6O)C(C)(C)[C@@H]5CC[C@]43C)[C@@H]2C1	inactive	inactive	> 100			
C[C@@H]1O[C@H](O[C@H]2[C@@H](OC(=O)[C@]34CCC(C)(C)C[C@H]3C3=CC[C@@H]5[C@@]6(C)CC[C@H](O[C@@H]7O[C@H](C(=O)O)[C@@H](O)[C@H](O[C@H]8OC[C@@H](O)[C@H](O)[C@H]8O)[C@H]7O[C@@H]7O[C@H](CO)[C@H](O)[C@H](O)[C@H]7O)[C@@](C)(C=O)[C@@H]6CC[C@@]5(C)[C@]3(C)C[C@H]4O)O[C@H](C)[C@H](O)[C@@H]2O)[C@H](O)[C@H](O[C@@H]2O[C@H](CO)[C@@H](O)[C@H](O)[C@H]2O)[C@H]1O[C@H]1OC[C@@H](O)[C@H](O)[C@H]1O	Active	Dose-dependent effect	8			
C[C@@H]1O[C@@H](O[C@H]2[C@H](O[C@H]3CC[C@@]4(C)[C@@H](CC[C@]5(C)[C@@H]4CC=C4[C@@H]6CC(C)(C)CC[C@]6(C(=O)O)CC[C@]45C)[C@]3(C)CO)OC[C@H](O)[C@@H]2O)[C@H](O)[C@H](O)[C@H]1O	inactive	Dose-dependent effect				
C[C@@H]1O[C@@H](O[C@H]2[C@H](O[C@H]3CC[C@@]4(C)[C@@H](CC[C@]5(C)[C@@H]4CC=C4[C@@H]6CC(C)(C)CC[C@]6(C(=O)O[C@@H]6O[C@H](CO[C@@H]7O[C@H](CO)[C@@H](O[C@@H]8O[C@@H](C)[C@H](O)[C@@H](O)[C@H]8O)[C@H](O)[C@H]7O)[C@@H](O)[C@H](O)[C@H]6O)CC[C@]45C)[C@]3(C)CO)OC[C@H](O)[C@@H]2O)[C@H](O)[C@H](O)[C@H]1O [KALOPANAXSAPONIN B]	inactive	inactive	> 164			> 164
CC[C@H](CC[C@@H](C)[C@H]1CC[C@H]2[C@@H]3CC=C4C[C@@H](O)CC[C@]4(C)[C@H]3CC[C@]12C)C(C)C	inactive	inactive				
CC1(C)[C@@H](O[C@H]2O[C@H](C(=O)O)[C@@H](O)[C@H](O)[C@H]2O[C@@H]2O[C@H](C(=O)O)[C@@H](O)[C@H](O)[C@H]2O)CC[C@]2(C)[C@H]3C(=O)C=C4[C@@H]5C[C@@](C)(C(=O)O)CC[C@]5(C)CC[C@@]4(C)[C@]3(C)CC[C@@H]12 [GLYCYRRHIZIN]	inactive	inactive	> 119			> 238
